The values below come from article PMC8279406 (Journal of Medicinal Chemistry, 2021).

The target in one test is T1, human αvβ6 integrin (Homo sapiens, UniProt P06756+P18564).
T1 construct: using immobilized ECM protein and soluble integrin; purchased R&D Systems (Biotechne brand) 3817-AV
In words: LAP(TGF-β1)-αvβ6 competitive solid-phase ELISA binding assay. The following applies: immobilized LAP, soluble integrin. As for the experimental part:
(§1) The affinity and selectivity of the integrin peptide ligands were ascertained according to a modified method previously reported by some of us.[33],[47] The binding was determined in a competitive solid-phase binding assay using extracellular matrix proteins, soluble integrins, and pertinent integrin-specific antibodies in an enzyme-linked immunosorbent assay (ELISA).
A flat-bottom 96-well ELISA plate was coated overnight at 4 °C with 100 μL/well of 0.4 μg/mL LAP previously diluted in carbonate buffer (15 mM Na2CO3, 35 mM NaHCO3, pH 9.6). Afterward, each well was then washed three times with 200 μL of PBS-T buffer (137 mM NaCl, 2.7 mM KCl, 10 mM Na2HPO4, 2 mM KH2PO4, 0.01% Tween 20, pH 7.4) and blocked for 1 h at room temperature with 150 μL/well TSB buffer (20 mM Tris–HCl, 150 mM NaCl, 1 mM CaCl2, 1 mM MgCl2, 1 mM MnCl2, pH 7.5, 1% BSA). Then, each well was washed three times with 200 μL of PBS-T.
Equal volumes (50 μL) of the internal standard (or test compounds) were mixed with 0.5 μg/mL human integrin αvβ6 (50 μL) giving a final dilution series in TSB buffer of 0.00064–10 μM for the inhibitors and 0.25 μg/mL for integrin αvβ6. These solutions (100 μL/well) were added to the flat-bottom ELISA plate and incubated for 1 h at room temperature. The solutions were discarded from the wells, and the plate was washed three times with PBS-T buffer (3 × 200 μL). […] The solutions were discarded from the wells, and the plate was washed three times with PBS-T (3 × 200 μL). The binding assay was developed by adding 50 μL/well of the 3,3′,5,5′-tetramethylbenzidine (TMB) liquid substrate system and incubating for 1 min at room temperature. The reaction was stopped by adding 50 μL/well of 3 M H2SO4. The peroxidase product formation was detected by measuring the absorbance at […] using a plate reader (Tecan SpectraFLUOR plus, Männedorf, Switzerland). Each compound concentration was tested in duplicate, and the resulting inhibition curves were analyzed using OriginPro 7.5G software; the inflection point describes the IC50 value. Each plate contained a linear peptide ([…]) as the internal standard.[63]
For orientation: An ELISA detects its analyte on a solid surface through an enzyme-linked reagent.

In the next test the target is T2, human α5β1 integrin (Homo sapiens, UniProt P05556+P08648).
T2 construct: purchased R&D Systems (Biotechne brand) 3230-A5
Description: Fibronectin-α5β1 competitive solid-phase ELISA binding assay. The following applies: immobilized fibronectin, soluble integrin. As for the experimental part:
as §1
The experimental procedure was as described for the αvβ6 assay, except for the following modifications. […] Visualization and analysis were performed as described above.

Another test deals with T3, human αvβ3-integrin (Homo sapiens, UniProt P05106+P06756).
T3 construct: purchased R&D Systems (Biotechne brand) 3050-AV
In words: Vitronectin-αvβ3 competitive solid-phase ELISA binding assay. As for the experimental part: as §1
The experimental procedure was as described for the αvβ6 assay, except for the following modifications. The plates were coated with 100 μL/well of 1.0 μg/mL vitronectin in carbonate buffer, washed, and blocked as described above. […] As a primary antibody, 100 μL/well of 2.0 μg/mL primary antibody (mouse antihuman CD51/61) was used. The secondary antibody used was the same as that used for the integrin αvβ6 assay. Visualization and analysis were performed as described above.

The next test deals with T4, integrin β8.
T4 construct: expressed in transfected cells; host or cells: J cells (derivatives of BHK-TK2 hamster cells)
In words: Integrin internalization assay, surface integrin β8 by flow cytometry. It counts as cell-based, human. The conditions noted are these: J cells with nectin1, αvβ6 and αvβ8, 700 μM, 1 h at 37 °C. The source says: Therefore, another mechanism might be responsible for the activity of 6 on J cells expressing αvβ8 integrin alone as well as the higher activity of 6 than that of 1 in cells that express both αvβ6 and αvβ8.[38] Thus, we hypothesized that 6 can prevent HSV-1 entry into J cells expressing nectin1 and the αvβ8 integrin alone by inducing internalization of the integrin itself. To validate our hypothesis, J cells were transfected with nectin1 and the two integrins αvβ6 and αvβ8 in the above-described manner. Then, 48 h after transfection, the cells were incubated for 60 min at 37 °C with 1 or 6. The surface expression of integrin β6 and β8, in the presence or the absence of peptides, was then evaluated by flow cytometry using FAB4155A (mAbβ6) and FAB4775A (mAbβ8) monoclonal antibodies that recognize other integrin regions than the RGD-binding domain.
Figure 5 Integrin internalization assay. J cells were transfected with a low amount (75 ng of DNA/24 well) of nectin1 plus αvβ6 integrin (300 ng of DNA/24 well) and αvβ8 integrin (300 ng of DNA/24 well). Then, 48 h after transfection, the cells were exposed to 700 μM peptides for 1 h at 37 °C. […] Integrin and nectin1 surface expression levels were quantified as flow cytometry expression of the APC mean fluorescence intensity (MFI) of gated cells. […]
(A flow cytometer gives signals particle by particle.)

`CN1C(=O)[C@H](C2CCCCC2)NC(=O)[C@H](CC(=O)O)NC(=O)CNC(=O)[C@H](CCCNC(=N)N)NC(=O)CC[C@H]1C(N)=O` [compound 6, [Arg-Gly-Asp-Chg-(NMe)Glu]-CONH2]: the IC50 (as a rule, the concentration that gives 50% inhibition) worked out at 1.6 ± 0.1 nM at human αvβ6 integrin; 112 ± 26 nM at human α5β1 integrin; 1200 ± 121 nM on human αvβ3-integrin (competitive ELISA, immobilized vitronectin, soluble integrin). Moreover, the “binding affinity for αvβ3 (in words)” value on human αvβ3-integrin is “no significant binding affinity”. In addition, the “integrin β8 surface level (in words)” value with integrin β8 is on record as “reduced”.
